Read-outs that look alike come from different tables or passages of the source.

Among the data in patent publication US20250270227A1, “CAMPTOTHECIN DERIVATIVE, AND PHARMACEUTICAL COMPOSITION AND USE THEREOF” (SIMCERE ZAIMING PHARMACEUTICAL CO., LTD., priority 2021, published 2025) are IC50 values, retold here.

Holding throughout (assay): Test 1 of anti-proliferative activity against tumor cells (Cell-Titer Glo)
Type in all cases: cell-based

The subject of assay [1] is human breast cancer cell line SKBR3. As to the method:
(§1) Cell culture: HCT116 cells and SKBR3 cells were cultured in McCoy's 5a medium containing 10% fetal bovine serum+1% penicillin-streptomycin at 37° C. and 5% CO2, and OVCAR3 cells were cultured in 1640 medium containing 20% fetal bovine serum+2 μg/mL bovine insulin+1% penicillin-streptomycin at 37° C. and 5% CO2. Cells in logarithmic growth phase were suitable for the experiment.
(§2) Detection of cell proliferation activity: The inhibitory activity of the compounds on the proliferation of the three cell lines HCT116, SKBR3 and OVCAR3 was detected using Cell-Titer Glo reagent. HCT116 cells (1500 cells per well), SKBR3 cells (3000 cells per well) and OVCAR3 cells (5000 cells per well) were seeded in 96-well plates and cultured at 37° C. and 5% CO2 for 24 h. The solution of the compound to be tested (the compound was dissolved in DMSO with the concentration of the compound being 1 mM, then the compound was diluted to 3 μM with DMSO, with 3-fold dilution and a total of 9 concentrations, and 10 μL of the prepared compound solution was transferred to a 96-well plate with the final concentration of 0-300 nM) was added. The cells were placed at 37° C. and 5% CO2 for further culture. HCT116 cells were cultured for 3 days, and SKBR3 cells and OVCAR3 cells were cultured for 5 days. The cell viability was detected by adding Cell-Titer Glo reagent.
(§3) Additionally, a negative control group and a positive control group were provided as Bottom and Top, respectively. In the negative control group, the cells were not added, only the same volume of medium was added, and other operations were consistent with those in the experimental group; in the positive control group, the test compound was not added, only the same volume of DMSO was added, and other operations were consistent with those in the experimental group.
(§4) Data analysis: The % compound inhibition was calculated, and fitting was performed to obtain IC50 of the compound.
(§5) % Compound inhibition=1−100%*(Signal−Bottom)/(Top−Bottom).
(§6) Signal represents the signal value of the experimental group, Bottom represents the average signal value of the negative control group, and Top represents the average signal value of the positive control group.

For assay [2], the system named is human ovarian cancer cell line OVCAR3. The method, then: as §1, §2, §3, §4, §5, §6
Assay [3] deals with Human colorectal cancer cell line HCT116. The method, then: as §1, §2, §3, §4, §5, §6
Where [4] appears, read: Homo sapiens, SK-BR-3, 120 h, read-out: SKBR3 Anti-proliferative activity IC50 (nM), SKBR3 cells, cultured 5 days with compound, Cell-Titer Glo.
Where [5] appears, read: Homo sapiens, OVCAR-3, 120 h, read-out: OVCAR3 Anti-proliferative activity IC50 (nM).
Setting [6] is: Homo sapiens, HCT-116, 72 h, read-out: HCT116 Anti-proliferative activity IC50 (nM), HCT116 cells, cultured 3 days with compound, Cell-Titer Glo.

For orientation: IC50 means the concentration that gives 50% inhibition. For `CC[C@@]1(O)C(=O)OCc2c1cc1n(c2=O)Cc2c-1nc1cc(F)c(Cl)c(F)c1c2CNC(=O)C(O)C1CC1` (single isomer, unassigned) [Compound 23-P2], the IC50 amounted to 4.5 nM in assay [1] (SKBR3 cells, cultured 5 days with compound, Cell-Titer Glo, read-out: SKBR3 Anti-proliferative activity IC50); 1.5 nM in assay [2] (OVCAR3 cells, cultured 5 days with compound, Cell-Titer Glo, read-out: OVCAR3 Anti-proliferative activity IC50); 9.5 nM in assay [3] (HCT116 cells, cultured 3 days with compound, Cell-Titer Glo, read-out: HCT116 Anti-proliferative activity IC50).
Regarding `CC[C@@]1(O)C(=O)OCc2c1cc1n(c2=O)Cc2c-1nc1cc(Cl)c(C)cc1c2CNC(=O)CO` [Compound 6, (S)-N-((8-chloro-4-ethyl-4-hydroxy-9-methyl-3,14-dioxo-3,4, 12,14-tetrahydro-1H-pyrano[3′,4′:6,7]indolizino[1,2-b]quinolin-11-yl)methyl)-2-hydroxyacetamide], the half-maximal inhibitory concentration (IC50) in assay [1] (setting [4]) is 4.8 nM; in assay [2] (setting [5]), 2.1 nM; in assay [3] (setting [6]) it was 12.6 nM.
With `CC[C@@]1(O)C(=O)OCc2c1cc1n(c2=O)Cc2c-1nc1ccc3c(c1c2CNC(=O)C(O)C1CC1)CCC3` (stereo partly drawn) [Compound 13, 2-cyclopropyl-N-(((S)-8-ethyl-8-hydroxy-9,12-dioxo-2,3,8,9, 12,14-hexahydro-1H,11H-cyclopentadieno[f]pyrano[3′,4′:6,7]indolizino [1,2-b]quinolin-15-yl)methyl)-2-hydroxyacetamide], the values for the IC50 in assay [2] (setting [5]) and in assay [3] (setting [6]) were 0.7 nM and 8 nM, respectively.
`CC[C@@]1(O)C(=O)OCc2c1cc1n(c2=O)Cc2c-1nc1cc(Cl)c(C)cc1c2CNC(=O)C(O)C(C)C` (stereo partly drawn) [Compound 18, N-(((S)-8-chloro-4-ethyl-4-hydroxy-9-methyl-3,14-dioxo-3,4, 12,14-tetrahydro-1H-pyrano[3′,4′:6,7]indolizino[1,2-b]quinolin-11-yl)methyl)-2-hydroxy-3-methylbutanamide]: the IC50 in assay [1] (setting [4]) stood at 5.1 nM; in assay [3] (setting [6]), 10.5 nM.
The corresponding values for `CC[C@@]1(O)C(=O)OCc2c1cc1n(c2=O)Cc2c-1nc1cc(F)c(C)cc1c2CNC1(CO)CC1` [Compound 19, (S)-4-ethyl-8-fluoro-4-hydroxy-11-(((1-(hydroxymethyl)cyclopropyl)amino)methyl)-9-methyl-1,12-dihydro-14H-pyrano[3′,4′:6,7]indolizino[1,2-b]quinoline-3,14(4H)-dione] are 4 nM and 5 nM.
The corresponding values for `CC[C@@]1(O)C(=O)OCc2c1cc1n(c2=O)Cc2c-1nc1ccc3occc3c1c2CNC(=O)CO` [Compound 20, (S)-N-((8-ethyl-8-hydroxy-9,12-dioxo-8,9,12,14-tetrahydro-11H-furo[3,2-f]pyrano[3′,4′:6,7]indolizino[1,2-b]quinolin-15-yl)methyl)-2-hydroxyacetamide] are 10.5 nM and 20.7 nM.
With `CC[C@@]1(O)C(=O)OCc2c1cc1n(c2=O)Cc2c-1nc1cc(F)c(Cl)c(F)c1c2CNC(=O)CO` [Compound 21, (S)-N-((9-chloro-4-ethyl-8,10-difluoro-4-hydroxy-3,14-dioxo-3,4,12,14-tetrahydro-1H-pyrano[3′,4′:6,7]indolizino[1,2-b]quinolin-11-yl)methyl)-2-hydroxyacetamide], the figures for the IC50 in assay [1] (setting [4]), in assay [2] (setting [5]) and in assay [3] (setting [6]) were 4 nM, 1.7 nM and 7.1 nM, respectively.
The corresponding values for `CC[C@@]1(O)C(=O)OCc2c1cc1n(c2=O)Cc2c-1nc1cc(F)c(Cl)c(F)c1c2CNC(=O)C(C)(C)O` [Compound 22, (S)-N-((9-chloro-4-ethyl-8,10-difluoro-4-hydroxy-3,14-dioxo-3,4,12,14-tetrahydro-1H-pyrano[3′,4′:6,7]indolizino[1,2-b]quinolin-11-yl)methyl)-2-hydroxy-2-methylpropanamide] are 3.5 nM, 1.4 nM and 4 nM.
Take `CC[C@@]1(O)C(=O)OCc2c1cc1n(c2=O)Cc2c-1nc1cc(F)c(Cl)c(F)c1c2CNC(=O)C(O)C1CC1` (stereo partly drawn) [Compound 23, N-(((S)-9-chloro-4-ethyl-8,10-difluoro-4-hydroxy-3,14-dioxo-3,4,12,14-tetrahydro-1H-pyrano[3′,4′:6,7]indolizino[1,2-b]quinolin-11-yl)methyl)-2-cyclopropyl-2-hydroxyacetamide]: the concentration for half-maximal inhibition (IC50) amounted to 5.3 nM in assay [1] (read-out: SKBR3 Anti-proliferative activity IC50, SKBR3 cells, cultured 5 days with compound, Cell-Titer Glo); 3.9 nM in assay [2] (setting [5]); 5.6 nM in assay [3] (read-out: HCT116 Anti-proliferative activity IC50, HCT116 cells, cultured 3 days with compound, Cell-Titer Glo).
Turning to `CC[C@@]1(O)C(=O)OCc2c1cc1n(c2=O)Cc2c-1nc1cc3c(c(Cl)c1c2CNC(=O)C(O)C1CC1)OCO3` (stereo partly drawn) [Compound 30, N-(((S)-15-chloro-7-ethyl-7-hydroxy-8,11-dioxo-7,8,11,13-tetrahydro-10H-[1,3]dioxolo[4,5-g]pyrano[3′,4′:6,7]indolizino[1,2-b]quinolin-14-yl)methyl)-2-cyclopropyl-2-hydroxyacetamide], the concentration for half-maximal inhibition (IC50) in assay [2] (setting [5]) was found to be 0.4 nM; in assay [3] (setting [6]) it was 4.6 nM.
The corresponding values for `CC[C@@]1(O)C(=O)OCc2c1cc1n(c2=O)Cc2c-1nc1cc(F)c(Cl)c(F)c1c2CNC(=O)CCO` [Compound 32, (S)-N-((9-chloro-4-ethyl-8,10-difluoro-4-hydroxy-3,14-dioxo-3,4,12,14-tetrahydro-1H-pyrano[3′,4′:6,7]indolizino[1,2-b]quinolin-11-yl)methyl)-3-hydroxypropanamide] are 1 nM and 9.8 nM.
The corresponding values for `CC[C@@]1(O)C(=O)OCc2c1cc1n(c2=O)Cc2c-1nc1cc(Cl)c3c(c1c2CNC(=O)CO)CCC3` [Compound 33, (S)-N-((4-chloro-8-ethyl-8-hydroxy-9,12-dioxo-2,3,8,9,12,14-hexahydro-1H,11H-cyclopentadieno[f]pyrano[3′,4′:6,7]indolizino[1,2-b]quinolin-15-yl)methyl)-2-hydroxyacetamide] are 0.8 nM and 5.5 nM.
The corresponding values for `CC[C@@]1(O)C(=O)OCc2c1cc1n(c2=O)Cc2c-1nc1cc(Cl)c3c(c1c2CNC(=O)C(O)C1CC1)CCC3` (stereo partly drawn) [Compound 34, N-(((S)-4-chloro-8-ethyl-8-hydroxy-9,12-dioxo-2,3,8,9,12,14-hexahydro-1H,11H-cyclopentadieno[f]pyrano[3′,4′:6,7]indolizino[1,2-b]quinolin-15-yl)methyl)-2-cyclopropyl-2-hydroxyacetamide] are 0.6 nM and 2.3 nM.
Regarding `CC[C@@]1(O)C(=O)OCc2c1cc1n(c2=O)Cc2c-1nc1cc3c(c(F)c1c2CNC(=O)CO)OCO3` [Compound 38, (S)-N-((7-ethyl-15-fluoro-7-hydroxy-8,11-dioxo-7,8,11,13-tetrahydro-10H-[1,3]dioxolo[4,5-g]pyrano[3′,4′:6,7]indolizino[1,2-b]quinolin-14-yl)methyl)-2-hydroxyacetamide], in assay [2] (setting [5]), the IC50 was 2.9 nM.
The same measure, in the same setting: in the case of `CC[C@@]1(O)C(=O)OCc2c1cc1n(c2=O)Cc2c-1nc1cc3c(c(F)c1c2CNC(=O)CN)OCO3` [Compound 40, (S)-2-amino-N-((7-ethyl-15-fluoro-7-hydroxy-8,11-dioxo-7,8,11,13-tetrahydro-10H-[1,3]dioxolo[4,5-g]pyrano[3′,4′:6,7]indolizino[1,2-b]quinolin-14-yl)methyl)acetamide] it was 11.3 nM.
